Assay results published in patent publication US10597388B2, “Pyridazinone herbicides” (FMC CORPORATION, priority 2014, dated 2020).

Tests used:
Test in all cases: Test D controlled growth environment herbicide test, pre- and postemergence
Format in all cases: in vivo
[1] = tested on: bluegrass (annual bluegrass, Poa annua)
Method in brief: (§1)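 Pre-emergence: seeds sown in silt loam soil were sprayed with compound in a non-phytotoxic solvent mix containing surfactant. Post-emergence: plants at 2 to 18 cm (1- to 4-leaf stage) in peat moss/vermiculite medium got the same formulation. Visual 0–100 rating versus controls after 14 to 21 d.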

[2] = tested on: chamomile (scentless chamomile, Matricaria inodora)
Method in brief: as §1

[3] = tested on: canarygrass (Phalaris minor)
Method in brief: as §1

[4] = tested on: barley, winter (winter barley, Hordeum vulgare)
Method in brief: as §1

[5] = tested on: buckwheat, wild (wild buckwheat, Polygonum convolvulus)
Method in brief: as §1

[6] = tested on: lambsquarters (Chenopodium album)
Method in brief: as §1

[7] = tested on: field violet (Viola arvensis)
Method in brief: as §1

[8] = tested on: radish, wild (wild radish, Raphanus raphanistrum)
Method in brief: as §1

[9] = tested on: galium (catchweed bedstraw, Galium aparine)
Method in brief: as §1

[10] = tested on: kochia (Kochia scoparia)
Method in brief: as §1

[11] = tested on: windgrass (Apera spica-venti)
Method in brief: as §1

[12] = tested on: field poppy (Papaver rhoeas)
Method in brief: as §1

[13] = tested on: barley, spring (spring barley, Hordeum vulgare)
Method in brief: as §1

[14] = tested on: pigweed (Amaranthus retroflexus)
Method in brief: as §1

[15] = Postemergence, 31 g ai/ha, scale 0 to 100 (0 no effect, 100 complete control)
[16] = Postemergence, 125 g ai/ha, visual rating on scale 0 (no effect) to 100 (complete control), 14 to 21 d
[17] = Postemergence, 250 g ai/ha, scale 0 to 100 (0 no effect, 100 complete control)
[18] = Preemergence, 62 g ai/ha, scale 0 to 100 (0 no effect, 100 complete control)
[19] = Preemergence, 125 g ai/ha, scale 0 to 100 (0 no effect, 100 complete control)
[20] = Preemergence, 250 g ai/ha, scale 0 to 100, 0 no effect, 100 complete control
[21] = postemergence, 62 g ai/ha, scale 0 to 100, 0 no effect, 100 complete control

For `Cc1ccc2ccccc2c1-c1c(OC(=O)OC(C)C)c(C)nn(C)c1=O` [Compound 72], the “Bluegrass plant response rating” value [1, 15] was 20, the “Plant response rating, Bluegrass” value [1, 16] was 40 and the “Plant response rating, Bluegrass” value [1, 17] was 55. The “Plant response rating (scale of 0 to 100), Bluegrass” value ([1]; Preemergence, 31 g ai/ha) was 10, the “Plant response rating, Bluegrass” value [1, 18] was 25 and the “Plant response rating, Bluegrass” value [1, 19] was 25. The “Plant response rating, Bluegrass” value [1, 20] was 50, the “Plant response rating, Bluegrass” value [1, 21] was 35 and the “Chamomile plant response rating” value [2, 15] was 75. For the same molecule, the “Plant response rating, Chamomile” value [2, 16] was 85, the “Plant response rating, Chamomile” value [2, 17] was 100 and the “Plant response rating, Chamomile” value [2, 21] was 80. For the same molecule, the “Canarygrass plant response rating” value [3, 15] was 40, the “Plant response rating, Canarygrass” value [3, 16] was 80 and the “Plant response rating, Canarygrass” value [3, 17] was 85. For the same molecule, the “Plant response rating (scale of 0 to 100), Canarygrass” value ([3]; Preemergence, 31 g ai/ha) was 0, the “Plant response rating, Canarygrass” value [3, 18] was 80 and the “Plant response rating, Canarygrass” value [3, 19] was 85. The “Plant response rating, Canarygrass” value [3, 20] was 95, the “Plant response rating, Canarygrass” value [3, 21] was 50 and the “Barley, Winter plant response rating” value [4, 15] was 10. The “Plant response rating, Barley, Winter” value [4, 16] was 30, the “Plant response rating, Barley, Winter” value [4, 17] was 35 and the “Plant response rating (scale of 0 to 100), Barley, Winter” value ([4]; Preemergence, 31 g ai/ha) was 5. For the same molecule, the “Plant response rating, Barley, Winter” value [4, 18] was 25, the “Plant response rating, Barley, Winter” value [4, 19] was 50 and the “Plant response rating, Barley, Winter” value [4, 20] was 75. For the same molecule, the “Plant response rating, Barley, Winter” value [4, 21] was 20, the “Buckwheat, Wild plant response rating” value [5, 15] was 95 and the “Plant response rating, Buckwheat, Wild” value [5, 16] was 100. The “Plant response rating, Buckwheat, Wild” value [5, 17] was 100, the “Plant response rating (scale of 0 to 100), Buckwheat, Wild” value ([5]; Preemergence, 31 g ai/ha) was 0 and the “Plant response rating, Buckwheat, Wild” value [5, 18] was 0. The “Plant response rating, Buckwheat, Wild” value [5, 19] was 15, the “Plant response rating, Buckwheat, Wild” value [5, 20] was 10 and the “Plant response rating, Buckwheat, Wild” value [5, 21] was 100. The “Lambsquarters plant response rating” value [6, 15] was 80, the “Plant response rating, Lambsquarters” value [6, 16] was 90 and the “Plant response rating, Lambsquarters” value [6, 17] was 100. For the same molecule, the “Plant response rating (scale of 0 to 100), Lambsquarters” value ([6]; Preemergence, 31 g ai/ha) was 35, the “Plant response rating, Lambsquarters” value [6, 18] was 100 and the “Plant response rating, Lambsquarters” value [6, 19] was 95. The “Plant response rating, Lambsquarters” value [6, 20] was 95, the “Plant response rating, Lambsquarters” value [6, 21] was 95 and the “Field Violet plant response rating” value [7, 15] was 90. For the same molecule, the “Plant response rating, Field Violet” value [7, 16] was 95, the “Plant response rating, Field Violet” value [7, 17] was 95 and the “Plant response rating (scale of 0 to 100), Field Violet” value ([7]; Preemergence, 31 g ai/ha) was 10. For the same molecule, the “Plant response rating, Field Violet” value [7, 18] was 75, the “Plant response rating, Field Violet” value [7, 19] was 75 and the “Plant response rating, Field Violet” value [7, 20] was 95. The “Plant response rating, Field Violet” value [7, 21] was 95, the “Radish, Wild plant response rating” value [8, 15] was 75 and the “Plant response rating, Radish, Wild” value [8, 16] was 90. For the same molecule, the “Plant response rating, Radish, Wild” value [8, 17] was 95, the “Plant response rating (scale of 0 to 100), Radish, Wild” value ([8]; Preemergence, 31 g ai/ha) was 0 and the “Plant response rating, Radish, Wild” value [8, 18] was 0. For the same molecule, the “Plant response rating, Radish, Wild” value [8, 19] was 50, the “Plant response rating, Radish, Wild” value [8, 20] was 50 and the “Plant response rating, Radish, Wild” value [8, 21] was 80. For the same molecule, the “Galium plant response rating” value [9, 15] was 95, the “Plant response rating, Galium” value [9, 16] was 100 and the “Plant response rating, Galium” value [9, 17] was 100. The “Plant response rating (scale of 0 to 100), Galium” value ([9]; Preemergence, 31 g ai/ha) was 20, the “Plant response rating, Galium” value [9, 18] was 60 and the “Plant response rating, Galium” value [9, 19] was 70. For the same molecule, the “Plant response rating, Galium” value [9, 20] was 85, the “Plant response rating, Galium” value [9, 21] was 100 and the “Kochia plant response rating” value [10, 15] was 80. The “Plant response rating, Kochia” value [10, 16] was 100, the “Plant response rating, Kochia” value [10, 17] was 100 and the “Plant response rating (scale of 0 to 100), Kochia” value ([10]; Preemergence, 31 g ai/ha) was 10. For the same molecule, the “Plant response rating, Kochia” value [10, 18] was 15, the “Plant response rating, Kochia” value [10, 19] was 10 and the “Plant response rating, Kochia” value [10, 20] was 40. The “Plant response rating, Kochia” value [10, 21] was 95, the “Windgrass plant response rating” value [11, 15] was 65 and the “Plant response rating, Windgrass” value [11, 16] was 80. For the same molecule, the “Plant response rating, Windgrass” value [11, 17] was 85, the “Plant response rating (scale of 0 to 100), Windgrass” value ([11]; Preemergence, 31 g ai/ha) was 25 and the “Plant response rating, Windgrass” value [11, 18] was 65. For the same molecule, the “Plant response rating, Windgrass” value [11, 19] was 80, the “Plant response rating, Windgrass” value [11, 20] was 90 and the “Plant response rating, Windgrass” value [11, 21] was 75. For the same molecule, the “Field Poppy plant response rating” value [12, 15] was 80, the “Plant response rating, Field Poppy” value [12, 16] was 100 and the “Plant response rating, Field Poppy” value [12, 17] was 100. For the same molecule, the “Plant response rating (scale of 0 to 100), Field Poppy” value ([12]; Preemergence, 31 g ai/ha) was 100, the “Plant response rating, Field Poppy” value [12, 18] was 100 and the “Plant response rating, Field Poppy” value [12, 19] was 100. For the same molecule, the “Plant response rating, Field Poppy” value [12, 20] was 100, the “Plant response rating, Field Poppy” value [12, 21] was 90 and the “Barley, Spring plant response rating” value [13, 15] was 5. For the same molecule, the “Plant response rating, Barley, Spring” value [13, 16] was 10, the “Plant response rating, Barley, Spring” value [13, 17] was 15 and the “Plant response rating (scale of 0 to 100), Barley, Spring” value ([13]; Preemergence, 31 g ai/ha) was 0. For the same molecule, the “Plant response rating, Barley, Spring” value [13, 18] was 0, the “Plant response rating, Barley, Spring” value [13, 19] was 0 and the “Plant response rating, Barley, Spring” value [13, 20] was 60. For the same molecule, the “Plant response rating, Barley, Spring” value [13, 21] was 5, the “Pigweed plant response rating” value [14, 15] was 95 and the “Plant response rating, Pigweed” value [14, 16] was 100. The “Plant response rating, Pigweed” value [14, 17] was 100, the “Plant response rating (scale of 0 to 100), Pigweed” value ([14]; Preemergence, 31 g ai/ha) was 35 and the “Plant response rating, Pigweed” value [14, 18] was 85. The “Plant response rating, Pigweed” value [14, 19] was 95, the “Plant response rating, Pigweed” value [14, 20] was 100 and the “Plant response rating, Pigweed” value [14, 21] was 100.
